The term inhibition denotes the share of the control response that was lost under treatment. Lower therefore signals little suppression.

The structures appear in SMILES notation. Where two headings read alike, the source gives them in different places.

Consider 17 compounds from US7485634B2, “Azepinoindole and pyridoindole derivatives as pharmaceutical agents” (Exelixis, Inc., priority 2002, dated 2009).

This test addresses T1, farnesoid X receptor (Homo sapiens, UniProt Q96RI1).
T1 construct: fused on or other part: GST fused in frame to the N-terminus of the LBD (TR-FRET assay only); Nothing is fused on in the co-transfection assay
T1 sequence (Q96RI1 244-471 isoform Q96RI1-2 limits assumed): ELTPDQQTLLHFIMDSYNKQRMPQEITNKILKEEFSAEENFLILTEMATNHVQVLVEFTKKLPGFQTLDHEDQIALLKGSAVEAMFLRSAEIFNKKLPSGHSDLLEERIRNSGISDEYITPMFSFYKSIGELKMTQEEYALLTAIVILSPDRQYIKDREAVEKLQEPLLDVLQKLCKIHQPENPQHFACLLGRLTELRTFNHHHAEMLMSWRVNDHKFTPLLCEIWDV
In words: one or more of the in vitro assays described herein (TR-FRET assay, Example 75; co-transfection assay, Example 76).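 As to all read-outs here: TR-FRET assay or luciferase reporter in CV-1 monkey kidney cells co-transfected with human FXR and RXRα, dose-response over 8 half-log concentrations, CDCA added in antagonist mode.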 The settings on record: for inhibition: 100% = baseline (DMSO only); for Emax: read-out: efficacy. On the technique in general: In TR-FRET formats the signal depends on donor and acceptor labels being close together.

Where [1] appears, read: inhibition of the activity of CDCA.
Where [2] appears, read: inhibition of the activity of CDCA, read-out: IC50 (antagonist / partial agonist).
Setting [3] is: one or more of the in vitro assays, read-out: EC50 (agonist / partial agonist).
The mark [4] stands for this setting: relative to maximum response of chenodeoxycholic acid (CDCA).

Method: (Wallac/PE Life Sciences, Cat# AD0059A) in FRET assay buffer (20 mM KH2PO4/K2HPO4 (pH 7.3), 150 mM NaCl, 2 mM CHAPS, 2 mM EDTA, 1 mM DTT) in the presence of the test compound(s) for 2-4 hours at room temperature in a 384 well assay plate. Data was collected using an LJL Analyst using the standard operating instructions and conditions with readings at emission wavelengths of 615 nm and 665 nm after a delay of 65 ps and an excitation wavelength of 330 nm.
The basic co-transfection protocol for measuring the farnesoid X receptor activity is as follows. CV-1 African Green Monkey Kidney cells were plated 24 hours before transfection to achieve approximately 70-80 percent confluency. Cells were transfected with the following expression vectors, CMX-farnesoid X receptor (full length human farnesoid X receptor), CMX-RXRα (full length human RXR), Luc12 (ECREx7-Tk-Luciferase) luciferase reporter gene construct. […] A CMX-β-Galactosidase expression vector was used as a transfection control. The transfection reagent used was DOTAP (Boehringer Mannheim). Cells were incubated with the DOTAP/DNA mixture for 5 hours after which the cells were harvested and plated onto either 96 well or 384 well plates containing the appropriate concentration of test compound. The assay was allowed to continue for an additional 18-20 hours, after which the cells were lysed, with lysis buffer (1% triton X 100, 10% glycerol, 5 mM Dithiothreitol, 1 mM EGTA, 25 mM Tricine, pH 7.8) and the luciferase activity measured in the presence of Luciferase assay buffer (0.73 mM ATP, 22.3 mM Tricine, 0.11 mM EGTA, 0.55 mM Luciferin, 0.15 mM Coenzyme A, 0.5 mM HEPES, 10 mM Magnesium sulphate) on a standard luminomter plate reader (PE Biosystems, NorthStar Reader), using recommended operating instructions and conditions.
Both the farnesoid X receptor/ECREx7 co-transfection assay (Example 76) and the TR-FRET assay (Example 75) can be used to establish the EC50/IC50 values for potency and percent activity or inhibition for efficacy. Efficacy defines the activity of a compound relative to a high control (chenodeoxycholic acid, CDCA) or a low control (DMSO/vehicle). The dose response curves are generated from an 8 point curve with concentrations differing by ½ LOG units. Each point represents the average of 4 wells of data from a 384 well plate. The curve for the data is generated by using the equation: Y=Bottom+(Top−Bottom)/(1+10^((LogEC50−X)*HillSlope))
The EC50/IC50 is therefore defined as the concentration at which an agonist or antagonist elicits a response that is half way between the Top (maximum) and Bottom (baseline) values. The EC50/IC50 values represented are the averages of at least 3 independent experiments. The determination of the relative efficacy or % control for an agonist is by comparison to the maximum response achieved by chenodeoxycholic acid that is measured individually in each dose response experiment.
For the antagonist assay, CDCA is added to each well of a 384 well plate to elicit a response. The % inhibition for each antagonist is therefore a measurement of the inhibition of the activity of CDCA.

Take `CCOC(=O)C1=CN(C(=O)c2ccc(F)cc2)CC(C)(C)c2c1[nH]c1cc(OC(=O)NCc3cccs3)ccc21` [3-(4-fluorobenzoyl)-1,1-dimethyl-8-(thiophen-2-ylmethylcarbamoyloxy)-1,2,3,6-tetrahydroazepino[4,5-b]indole-5-carboxylic acid ethyl ester]: the inhibition under setting [1] is given as 100%. Further, under setting [2], the IC50 was less than 100 nM.
As for `CCOC(=O)C1=CN(C(=O)c2ccc(F)cc2)CC(C)(C)c2c1[nH]c1cc(OC(=O)NC3CCCCC3)ccc21` [8-cyclohexylcarbamoyloxy-3-(4-fluorobenzoyl)-1,1-dimethyl-1,2,3,6-tetrahydroazepino[4,5-b]indole-5-carboxylic acid ethyl ester], the IC50 under setting [2] is less than 200 nM. For the same compound, the EC50 under setting [3] was less than 200 nM. Also, under setting [4], the Emax fell in the range of 10 to 30%.
Consider `CCOC(=O)C1=CN(C(=O)c2ccc(F)cc2)CC(C)(C)c2c1[nH]c1cc(N(C)C(=O)NCc3ccccn3)ccc21` [3-(4-fluorobenzoyl)-1,1-dimethyl-8-(1-methyl-3-pyridin-2-ylmethylureido)-1,2,3,6-tetrahydroazepino[4,5-b]indole-5-carboxylic acid ethyl ester], for which the inhibition under setting [1] came out at 100%. Moreover, under setting [2], the IC50 was less than 100 nM.
Taken in the same sequence, the figures for `CCOC(=O)C1=CN(C(=O)c2ccc(F)cc2)CC(C)(C)c2c1[nH]c1cc(OC(=O)NC3CC3)ccc21` [8-cyclopropylcarbamoyloxy-3-(4-fluorobenzoyl)-1,1-dimethyl-1,2,3,6-tetrahydroazepino[4,5-b]indole-5-carboxylic acid ethyl ester] were 100% and less than 100 nM.
Consider `CCOC(=O)C1=CN(C(=O)c2ccc(F)cc2)CC(C)(C)c2c1[nH]c1cc(OC(=O)NCc3ccccn3)ccc21` [3-(4-fluorobenzoyl)-1,1-dimethyl-8-(pyridin-2-yl-methylcarbamoyloxy)-1,2,3,6-tetrahydroazepino[4,5-b]indole-5-carboxylic acid ethyl ester], for which the EC50 is less than 200 nM, the IC50 was less than 200 nM and the Emax lay within 10 to 30%.
Consider `CCOC(=O)C1=CN(C(=O)c2ccc(F)cc2)CC(C)(C)c2c1[nH]c1ccc(F)cc21` [9-Fluoro-3-(4-fluoro-benzoyl)-1,1-dimethyl-1,2,3,6-tetrahydro-azepino[4,5-b]indole-5-carboxylic acid ethyl ester], for which the EC50 under setting [3] was less than 100 nM. Further, the Emax under setting [4] is more than 100%.
In the same order, the values of `CCOC(=O)C1=CN(C(=O)c2ccc(F)c(F)c2)CC(C)c2c1[nH]c1ccccc21` (centres unmarked) [ethyl 3-(3,4-difluorobenzoyl)-1-methyl-1,2,3,6-tetrahydroazepino[4,5-b]indole-5-carboxylate] are less than 100 nM and more than 100%.
In the same order, the values of `CC1Cc2c([nH]c3ccccc23)C(C(=O)NC2CCC2)=CN1C(=O)c1ccc(F)cc1` (centres unmarked) [3-(4-fluorobenzoyl)-2-methyl-1,2,3,6-tetrahydroazepino[4,5-b]indole-5-carboxylic acid cyclobutylamide] are less than 100 nM and more than 100%.
For the compound `CCOC(=O)C1=CN(C(=O)c2ccc(F)cc2)CC(C)(C)c2c1[nH]c1cc(OC(=O)NCc3cccnc3)ccc21` [3-(4-fluorobenzoyl)-1,1-dimethyl-8-(pyridin-3-ylmethylcarbamoyloxy)-1,2,3,6-tetrahydroazepino[4,5-b]indole-5-carboxylic acid ethyl ester], the IC50 under setting [2] is less than 200 nM. In addition, the EC50 under setting [3] is less than 200 nM. The Emax under setting [4] fell in the range of 10 to 30%.
Consider `CCOC(=O)C1=CN(C(=O)c2ccc(F)cc2)CC(C)(C)c2c1[nH]c1cc(OC(=O)NCCc3ccccn3)ccc21` [3-(4-fluorobenzoyl)-1,1-dimethyl-8-(2-pyridin-2-yl-ethylcarbamoyloxy)-1,2,3,6-tetrahydroazepino[4,5-b]indole-5-carboxylic acid ethyl ester], for which the IC50 under setting [2] is less than 200 nM. Moreover, under setting [3], the EC50 is less than 200 nM. In addition, the Emax under setting [4] lay in the range of 10 to 30%.
Compound `CCOC(=O)C1=CN(C(=O)c2ccc(F)cc2)CC(C)(C)c2c1[nH]c1cc(OC(=O)NC(C)C)ccc21` [3-(4-fluorobenzoyl)-1,1-dimethyl-8-isopropylcarbamoyloxy-1,2,3,6-tetrahydroazepino[4,5-b]indole-5-carboxylic acid ethyl ester] returned an inhibition under setting [1] of 100%. For the same compound, the IC50 under setting [2] is less than 100 nM.
Regarding `CCOC(=O)C1=CN(C(=O)c2ccc(F)cc2)CC(C)(C)c2c1[nH]c1cc(N(C)C(=O)NC3CC3)ccc21` [8-(3-cyclopropyl-1-methylureido)-3-(4-fluorobenzoyl)-1,1-dimethyl-1,2,3,6-tetrahydroazepino[4,5-b]indole-5-carboxylic acid ethyl ester], under setting [1], the inhibition was 100%. Moreover, the IC50 under setting [2] is less than 100 nM.
Taken in the same sequence, the figures for `CCOC(=O)C1=CN(C(=O)c2ccc(F)cc2)CC(C)(C)c2c1[nH]c1ccc(N(Cc3ccccc3)C(=O)N(C)C)cc21` [9-(1-benzyl-3,3-dimethyl-ureido)-3-(4-fluoro-benzoyl)-1,1-dimethyl-1,2,3,6-tetrahydro-azepino[4,5-b]indole-5-carboxylic acid ethyl ester] were 100% and less than 100 nM.
Turning to `CCOC(=O)C1=CN(C(=O)c2ccc(F)c(F)c2)CC2(CCCC2)c2c1[nH]c1ccccc21` [3-(3,4-difluorobenzoyl)-1,1-tetramethylene-1,2,3,6-tetrahydroazepino[4,5-b]indole-5-carboxylic acid ethyl ester], under setting [3], the EC50 was less than 100 nM. The Emax under setting [4] was more than 100%.
For `CC(C)OC(=O)C1=CN(C(=O)c2ccc(F)c(F)c2)CC(C)(C)c2c1[nH]c1ccccc21` [isopropyl 3-(3,4-difluorobenzoyl)-1,1-dimethyl-1,2,3,6-tetrahydroazepino[4,5-b]indole-5-carboxylate], the Emax under setting [4] is more than 100%.
As for `CCOC(=O)C1=CN(C(=O)c2ccc(F)cc2)CC(C)(C)c2c1[nH]c1cc(OC(=O)NCc3cnc(C)cn3)ccc21` [3-(4-fluorobenzoyl)-1,1-dimethyl-8-(5-methylpyrazin-2-ylmethylcarbamoyloxy)-1,2,3,6-tetrahydroazepino[4,5-b]indole-5-carboxylic acid ethyl ester], the IC50 under setting [2] is less than 200 nM. The EC50 under setting [3] is less than 200 nM. The Emax under setting [4] lay within 10 to 30%.
Consider `CC(C)OC(=O)C1=CN(C(=O)c2ccc(F)c(F)c2)CC(C)c2c1[nH]c1ccccc21` (centres unmarked) [isopropyl 3-(3,4-difluorobenzoyl)-1-methyl-1,2,3,6-tetrahydroazepino[4,5-b]indole-5-carboxylate], for which the EC50 under setting [3] was less than 100 nM. Moreover, the Emax under setting [4] is more than 100%.
